Laboratory results reported in patent US8383652B2, “Biaromatic compounds that modulate PPAR-receptors” (Galderma Research & Development, priority 2005, dated 2013).
Where a name gives a salt, the structure may show the parent alone.

Assays:
PPARγ = molecular target: T1, PPARγ (Homo sapiens, UniProt P37231); assay: Cross-curve PPAR transactivation test, PPARγ; format: cell-based; conditions: HeLN cells stably transfected with Gal-hPPAR and luciferase reporter; cross curves against reference agonist, Schild regression; n.a means not active; read-out: PPAR gamma Kd app
T1 construct: The reporter is ERE-βGlob-Luc-SV-Neo
T1 sequence (P37231 238-505 limits assumed): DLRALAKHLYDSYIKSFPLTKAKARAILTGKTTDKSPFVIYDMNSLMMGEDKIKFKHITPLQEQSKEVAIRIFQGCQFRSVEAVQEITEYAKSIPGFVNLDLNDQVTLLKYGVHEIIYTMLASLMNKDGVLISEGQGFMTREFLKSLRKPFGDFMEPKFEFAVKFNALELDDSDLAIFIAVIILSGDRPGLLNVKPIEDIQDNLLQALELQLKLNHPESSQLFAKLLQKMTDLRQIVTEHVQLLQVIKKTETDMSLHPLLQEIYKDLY
Description: (§1) The activation of the receptors with an agonist (activator) in HeLN cells leads to the expression of a reporter gene, luciferase, which, in the presence of a substrate, generates light. The modulation of the receptors is measured by quantifying the luminescence produced after incubating the cells in the presence of a reference agonist. The ligands displace the agonist from its site. The measurement of the activity is performed by quantifying the light produced. This measurement makes it possible to determine the modulatory activity of the compounds according to the invention by determining the constant that is the affinity of the molecule for the receptor. Since this value can fluctuate depending on the basal activity and the expression of the receptor, it is referred to as Kd apparent (KdApp in nM).
(§2) To determine this constant, “cross curves” of the test product against a reference agonist are produced in a 96-well plate: 10 concentrations of the test product plus a concentration 0 are arranged in a line, and 7 concentrations of the agonist plus a concentration 0 are arranged in a column. This is 88 measurement points for 1 product and 1 receptor. The remaining 8 wells are used for repeatability controls.
(§3) Measurements are also taken for total agonist controls with the same products.
(§4) The HeLN cell lines used are stable transfectants containing the plasmids ERE-βGlob-Luc-SV-Neo (reporter gene) and PPAR (α, δ, γ) Gal-hPPAR. These cells are inoculated into 96-well plates at a rate of 10-000 cells per well in 100 μL of DMEM medium without phenol red and supplemented with 10% of defatted calf serum. The plates are then incubated at 37° C. and 7% CO2 for 16 hours. The various dilutions of the test products and of the reference ligand are added at a rate of 5 μL per well. The plates are then incubated for 18 hours at 37° C. and 7% CO2.
(§5) The culture medium is removed by turning over and 100 μL of a 1:1 PBS/luciferin mixture are added to each well. After 5 minutes, the plates are read by the luminescence detector.

PPARα = molecular target: T2, PPARα (Homo sapiens, UniProt Q07869); assay: Cross-curve PPAR transactivation test, PPARα; format: cell-based; conditions: HeLN cells stably transfected with Gal-hPPAR and luciferase reporter; cross curves against reference agonist, Schild regression; n.a means not active; read-out: PPAR alpha Kd app
T2 construct: The reporter is ERE-βGlob-Luc-SV-Neo
T2 sequence (Q07869 200-468 limits assumed): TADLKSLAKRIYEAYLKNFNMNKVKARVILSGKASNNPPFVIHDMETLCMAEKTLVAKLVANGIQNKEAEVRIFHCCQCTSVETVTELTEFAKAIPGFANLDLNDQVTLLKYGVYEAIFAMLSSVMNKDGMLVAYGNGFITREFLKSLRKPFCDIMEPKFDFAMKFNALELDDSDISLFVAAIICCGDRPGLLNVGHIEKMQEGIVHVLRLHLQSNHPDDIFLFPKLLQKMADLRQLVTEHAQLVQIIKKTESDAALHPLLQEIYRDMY
Description: as §1, §2, §3, §4, §5

PPARδ = molecular target: T3, PPARδ (Homo sapiens, UniProt Q03181); assay: Cross-curve PPAR transactivation test, PPARδ; format: cell-based; conditions: HeLN cells stably transfected with Gal-hPPAR and luciferase reporter; cross curves against reference agonist, Schild regression; n.a means not active; read-out: PPARs delta Kd app
T3 construct: The reporter is ERE-βGlob-Luc-SV-Neo
T3 sequence (Q03181 211-441 limits assumed): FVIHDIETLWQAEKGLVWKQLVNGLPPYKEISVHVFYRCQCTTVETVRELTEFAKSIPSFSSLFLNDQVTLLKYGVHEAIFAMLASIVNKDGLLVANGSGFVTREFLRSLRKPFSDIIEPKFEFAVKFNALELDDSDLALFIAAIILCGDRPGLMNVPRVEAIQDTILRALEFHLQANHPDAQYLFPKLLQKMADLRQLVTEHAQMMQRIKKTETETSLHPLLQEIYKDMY
Description: as §1, §2, §3, §4, §5

CCCCCCCC(=O)N(C)Cc1cccc(-c2ccc(/C=C(\OCC)C(=O)O)cc2)c1 [Compound 1, (Z)-2-ethoxy-3-{3′-[(methyloctanoylamino)methyl]biphenyl-4-yl}acrylic acid]
Kd (PPARγ): 30 nM
Kd (PPARα): 2000 nM

CCCCCCCNC(=O)N(C)c1cccc(-c2ccc(/C=C(\OCC)C(=O)O)cc2)n1 [Compound 2, (Z)-2-ethoxy-3-{4-[6-(3-heptyl-1-methylureido)pyrid-2-yl]phenyl}acrylic acid]
Kd (PPARγ): 30 nM
Kd (PPARα): 1000 nM

CCCCCNC(=O)N(C)c1cccc(-c2ccc(/C=C(\OCC)C(=O)O)cc2)n1 [Compound 3, (Z)-2-ethoxy-3-{4-[6-(1-methyl-3-pentylureido)pyrid-2-yl]phenyl}acrylic acid]
melting point: 162 °C
Kd (PPARγ): 30 nM

CCCCCCCNC(=O)N(C)c1cccc(-c2ccc(/C=C(\OCC)C(=O)O)cn2)c1 [Compound 4, (Z)-2-ethoxy-3-{6-[3-(3-heptyl-1-methylureido)phenyl]pyrid-3-yl}acrylic acid hydrochloride]
Kd (PPARγ): 4 nM

CCCCCCCNC(=O)N(C)c1cccc(-c2ccc(/C=C(\C)C(=O)O)cc2)c1 [Compound 5, (E)-3-[3′-(3-heptyl-1-methylureido)biphenyl-4-yl]-2-methylacrylic acid]
Kd (PPARγ): 2 nM

CCCCCCCNC(=O)N(C)c1cccc(-c2ccc(/C=C(\F)C(=O)O)cc2)c1 [Compound 6, (Z)-2-fluoro-3-[3′-(3-heptyl-1-methylureido)biphenyl-4-yl]acrylic acid]
Kd (PPARγ): 60 nM

CCCCCCCNC(=O)N(C)c1cccc(-c2ccc(/C=C(\CC)C(=O)O)cc2)c1 [Compound 7, 2-[1-[3′-(3-heptyl-1-methylureido)biphenyl-4-yl]meth-(E)-ylidene]butyric acid]
Kd (PPARγ): 4 nM

CCCCCNC(=O)N(C)c1cccc(-c2ccc(/C=C(\CCC)C(=O)O)cc2)c1 [Compound 8, 2-[1-[3′-(1-methyl-3-pentylureido)biphenyl-4-yl]meth-(E)-ylidene]pentanoic acid]
Kd (PPARγ): 4 nM
Kd (PPARδ): 2000 nM
Kd (PPARα): 500 nM

CCCCCNC(=O)N(C)c1cccc(-c2ccc(/C=C(\CC)C(=O)O)cc2)c1 [Compound 9, 2-[1-[3′-(1-methyl-3-pentylureido)biphenyl-4-yl]meth-(E)-ylidene]butyric acid]
Kd (PPARγ): 4 nM
Kd (PPARδ): 2000 nM
Kd (PPARα): 2000 nM

CCO/C(=C\c1ccc(-c2cccc(N(C)C(=O)NCCc3ccccc3)c2)cc1)C(=O)O [Compound 10, (Z)-2-ethoxy-3-[3′-(1-methyl-3-phenethylureido)biphenyl-4-yl]acrylic acid]
Kd (PPARγ): 4 nM

CCCCNC(=O)N(C)c1cccc(-c2ccc(/C=C(\OC)C(=O)O)cc2)c1 [Compound 11, (Z)-3-[3′-(3-butyl-1-methylureido)biphenyl-4-yl]-2-methoxyacrylic acid]
Kd (PPARγ): 4 nM

CCCCCNC(=O)N(C)c1cccc(-c2ccc(/C=C(\OC)C(=O)O)cc2)c1 [Compound 13, (Z)-2-Methoxy-3-[3′-(1-methyl-3-pentylureido)biphenyl-4-yl]acrylic acid]
Kd (PPARγ): 8 nM
Kd (PPARδ): 4000 nM

COC(=O)/C(=C/c1ccc(-c2cccc(N(C)C(=O)NC3CCCCC3)c2)cc1)OC [Compound 14, Methyl (Z)-3-[3′-(3-cyclohexyl-1-methylureido)biphenyl-4-yl]-2-methoxyacrylate]
Kd (PPARγ): 60 nM
Kd (PPARδ): 4000 nM

CO/C(=C\c1ccc(-c2cccc(N(C)C(=O)NC3CCCCC3)c2)cc1)C(=O)O [Compound 15, (Z)-3-[3′-(3-cyclohexyl-1-methylureido)biphenyl-4-yl]-2-methoxyacrylic acid]
Kd (PPARγ): 8 nM

CO/C(=C\c1ccc(-c2cccc(N(C)C(=O)NCCc3ccccc3)c2)cc1)C(=O)O [Compound 16, (Z)-2-methoxy-3-[3′-(1-methyl-3-phenethylureido)biphenyl-4-yl]acrylic acid]
Kd (PPARγ): 8 nM

CCCCOc1cc(/C=C(\C)C(=O)O)ccc1-c1cccc(CN(C)C(=O)c2cccc(OC)c2)c1 [Compound 21, (E)-3-(2-butoxy-3′-{[(3-methoxybenzoyl)methylamino]methyl}biphenyl-4-yl)-2-methylacrylic acid]
Kd (PPARγ): 30 nM

CCCCOc1cc(/C=C(\CC)C(=O)O)ccc1-c1cccc(CN(C)C(=O)c2ccccc2)c1 [Compound 22, 2-[1-{3′-[(benzoylmethylamino)methyl]-2-butoxybiphenyl-4-yl}meth-(E)-ylidene]butyric acid]
Kd (PPARγ): 120 nM

CCCCCNC(=O)N(C)c1cccc(-c2ccc(/C=C(\OC)C(=O)O)cc2OCCCC)c1 [Compound 24, (Z)-3-[2-butoxy-3′-(1-methyl-3-pentylureido)biphenyl-4-yl]-2-methoxyacrylic acid]
melting point: 61 °C

CCCCCCCNC(=O)N(C)c1cccc(-c2ccc(/C=C(\C)C(=O)O)cc2OCCC)c1 [Compound 31, (E)-3-[3′-(3-heptyl-1-methylureido)-2-propoxybiphenyl-4-yl]-2-methylacrylic acid]
Kd (PPARγ): 2 nM

CCCCCCCNC(=O)N(C)c1cccc(-c2ccc(/C=C(\C)C(=O)O)cc2OCC)c1 [Compound 32, (E)-3-[2-ethoxy-3′-(3-heptyl-1-methylureido)biphenyl-4-yl]-2-methylacrylic acid]
Kd (PPARγ): 1 nM
Kd (PPARα): 4000 nM
